In patent US8536212B2, “Protective agent for retinal nerve or optic nerve” (Sanwa Kagaku Kenkyusho Co., Ltd., priority 2007, dated 2013):

Tested on: retinal ganglion cells
Experiment: Mouse ophthalmic artery occlusion model: retinal ischemia 2 hours, reperfusion 22 hours, survival of retinal ganglion cells
Assay type: in vivo, C57BL/6N normal mice (wild type mice)
Settings: for The number of surviving retinal ganglion cells per 1 μm of retina section, average ± SEM: drug given by forced intragastric administration 15 minutes before reperfusion
Method: In the experiment, mouse models with acute ophthalmic artery infarction, namely, mouse models with ophthalmic artery infarction were used. In Experiment 1, eight to ten-week-old C57BL/6N normal mice (wild type mice) were used and the therapeutic efficacy of fidarestat as the compound with aldose reductase (AR) inhibiting activity was evaluated. Here, those mice were divided into two groups: a control group to which only vehicle was administered and a fidarestat administered group to which fidarestat was administered. In Experiment 2, eight to ten-week-old C57BL/6N normal mice (wild type mice:AR^+/+ mice) and AR gene-deficient mice (AR^−/− mice) were used and the role of AR was examined. Here, those mice were divided into two groups: a wild type mouse group (AR^+/+ mice) and an AR gene-deficient mouse group (AR^−/− mice) and a drug administered group was not used.
Used mice (24 to 28 g of body weight) were subjected to intraluminal suture with nylon monofilament under gas anesthesia. A nylon filament was inserted into the right internal carotid artery at the bifurcation of the middle cerebral artery and the anterior cerebral artery from the common carotid artery. The mice were subjected to retinal ischemia in the right eye. The filament was pulled 2 hours after the ischemia and reperfusion was performed for 22 hours. On the other hand, left eye was evaluated as a normal control eye. In order to confirm ischemia or reperfusion, relative cerebral blood flow (rCBF) in the middle cerebral artery was monitored with a laser Doppler meter during the experiment. Decrease in the rCBF of 75% or more was defined as middle cerebral artery ischemia. The drug was administered 15 minutes before reperfusion starts by forced intragastric administration. At the end of the experiment, the isolated eyes were fixed in 4% paraformaldehyde at 4° C. overnight. The retinal ganglion cell layer was subjected to hematoxylin and eosin stain. Then, the number of surviving retinal ganglion cells was observed and measured. […] All cells of the retina ganglionic layer in each retina section were measured. Further, all measurements were performed by a blind fashion.

With `NC(=O)[C@@H]1C[C@]2(NC(=O)NC2=O)c2cc(F)ccc2O1` [Fidarestat, (2S,4S)-6-fluoro-2′,5′-dioxospiro[chroman-4,4′-imidazolidine]-2-carboxamide] the “The number of surviving retinal ganglion cells per 1 μm of retina section, average ± SEM” value (side of no retinal ischemia (left eye, normal control eye)) was 23 ± 1 per 1 μm of retina section, the “The number of surviving retinal ganglion cells per 1 μm of retina section, average ± SEM” value (side of retinal ischemia (right eye), 2 hours ischemia and 22 hours reperfusion, P<0.001 vs control group) was 21 ± 1^†††^ per 1 μm of retina section and the “Pathological finding showing retinal ganglion cell death (hematoxylin and eosin stain)” value (side of retinal ischemia or side of no retinal ischemia, 2 hours ischemia, 22 hours reperfusion (FIG. 1: D3, D4)) was “not observed”. The “Number of surviving retinal ganglion cells on the side of retinal ischemia compared with the control group” value (side of retinal ischemia, P<0.001) was “significantly increased”.
